Assay results reported in article PMC8787749, “4-Deoxy-4-fluoro-GalNAz (4FGalNAz) Is a Metabolic Chemical Reporter of O-GlcNAc Modifications, Highlighting the Notable Substrate Flexibility of O-GlcNAc Transferase” (ACS Chemical Biology, 2021).

Legend:
Assay in all cases: UDP-Glo UDP release assay
Assay type in all cases: biochemical
GALNT1 = biological target: T1, GALNT1 (Homo sapiens, UniProt Q10472); conditions: 50 μM UDP sugar, 50 μM MUC5AC peptide, 10 nM enzyme, 25 mM Tris-HCl pH 7.4, 10 mM MnCl2, room temperature
T1 construct: truncated, residues 41-559, plasmid hT1-pKN55, secreted from Pichia pastoris SMD1163, Ni-NTA purified
T1 sequence (Q10472 41-559): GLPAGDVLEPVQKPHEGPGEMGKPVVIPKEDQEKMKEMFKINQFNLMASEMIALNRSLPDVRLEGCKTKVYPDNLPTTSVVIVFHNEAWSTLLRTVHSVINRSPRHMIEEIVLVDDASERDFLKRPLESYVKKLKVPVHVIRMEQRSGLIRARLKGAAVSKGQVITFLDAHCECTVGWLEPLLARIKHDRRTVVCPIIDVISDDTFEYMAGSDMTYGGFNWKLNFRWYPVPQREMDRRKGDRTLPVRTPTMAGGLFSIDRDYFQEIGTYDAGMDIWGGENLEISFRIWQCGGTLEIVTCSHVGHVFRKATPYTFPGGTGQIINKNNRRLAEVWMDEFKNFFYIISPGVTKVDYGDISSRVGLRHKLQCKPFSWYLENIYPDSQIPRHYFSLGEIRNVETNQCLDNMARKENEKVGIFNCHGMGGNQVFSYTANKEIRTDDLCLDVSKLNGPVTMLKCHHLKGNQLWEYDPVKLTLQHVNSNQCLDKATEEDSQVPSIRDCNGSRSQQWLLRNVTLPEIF

GALNT2 = biological target: T2, GALNT2 (Homo sapiens, UniProt Q10471); conditions: 50 μM UDP sugar, 50 μM MUC5AC peptide, 150 nM enzyme, 25 mM Tris-HCl pH 7.4, 10 mM MnCl2, room temperature
T2 construct: truncated, residues 75-572 as printed, hT2-pKN55 vector, secreted from Pichia pastoris SMD1163, Ni-NTA purified
T2 sequence (Q10471 75-571): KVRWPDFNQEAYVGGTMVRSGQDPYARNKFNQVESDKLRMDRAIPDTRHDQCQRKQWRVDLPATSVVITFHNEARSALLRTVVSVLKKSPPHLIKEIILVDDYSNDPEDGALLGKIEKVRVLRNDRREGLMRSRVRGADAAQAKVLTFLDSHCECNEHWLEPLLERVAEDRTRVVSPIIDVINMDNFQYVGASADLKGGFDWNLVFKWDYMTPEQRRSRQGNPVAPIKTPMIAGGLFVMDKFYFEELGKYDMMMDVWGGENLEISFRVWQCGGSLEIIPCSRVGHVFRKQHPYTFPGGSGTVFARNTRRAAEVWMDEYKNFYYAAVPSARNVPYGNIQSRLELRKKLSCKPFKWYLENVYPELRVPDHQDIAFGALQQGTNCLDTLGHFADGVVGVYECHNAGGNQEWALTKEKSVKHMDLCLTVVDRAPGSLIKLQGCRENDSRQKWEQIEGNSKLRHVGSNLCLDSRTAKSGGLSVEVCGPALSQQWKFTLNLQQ

ncOGT (OGT) = biological target: T3, ncOGT (OGT) (Homo sapiens, UniProt O15294); conditions: 40 μM UDP sugar, 125 μM CKII3K peptide, 300 nM enzyme, 25 mM Tris-HCl pH 7.4, 150 mM NaCl, room temperature
T3 sequence (O15294 2-1046): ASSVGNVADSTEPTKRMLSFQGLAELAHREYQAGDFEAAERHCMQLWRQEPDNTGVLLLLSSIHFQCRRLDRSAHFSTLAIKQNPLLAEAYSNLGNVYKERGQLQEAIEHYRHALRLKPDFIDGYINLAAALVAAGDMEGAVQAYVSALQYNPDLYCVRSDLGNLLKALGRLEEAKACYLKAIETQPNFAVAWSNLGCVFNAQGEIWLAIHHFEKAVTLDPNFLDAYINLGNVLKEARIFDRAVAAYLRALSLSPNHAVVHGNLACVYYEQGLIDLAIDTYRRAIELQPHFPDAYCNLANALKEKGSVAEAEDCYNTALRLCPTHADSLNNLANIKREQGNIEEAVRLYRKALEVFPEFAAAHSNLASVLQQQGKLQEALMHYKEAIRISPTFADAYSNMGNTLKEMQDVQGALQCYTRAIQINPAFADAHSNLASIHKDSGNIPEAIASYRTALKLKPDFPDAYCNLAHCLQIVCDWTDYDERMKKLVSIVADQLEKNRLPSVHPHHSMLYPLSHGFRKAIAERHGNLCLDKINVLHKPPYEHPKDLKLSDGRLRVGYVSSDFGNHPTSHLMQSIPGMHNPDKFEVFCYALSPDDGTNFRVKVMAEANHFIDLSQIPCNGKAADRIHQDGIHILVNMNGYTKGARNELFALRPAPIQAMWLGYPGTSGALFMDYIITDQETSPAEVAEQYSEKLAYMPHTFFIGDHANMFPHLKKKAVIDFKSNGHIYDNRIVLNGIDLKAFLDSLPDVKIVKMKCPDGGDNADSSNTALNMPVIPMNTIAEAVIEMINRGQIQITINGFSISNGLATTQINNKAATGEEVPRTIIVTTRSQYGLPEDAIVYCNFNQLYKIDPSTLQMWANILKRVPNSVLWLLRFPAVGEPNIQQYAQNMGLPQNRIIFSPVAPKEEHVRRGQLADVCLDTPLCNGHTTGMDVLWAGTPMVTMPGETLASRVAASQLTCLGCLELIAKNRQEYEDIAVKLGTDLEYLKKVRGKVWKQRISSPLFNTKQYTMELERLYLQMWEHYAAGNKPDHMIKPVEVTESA

Row | SMILES | UDP-Glo UDP release assay (GALNT1) | UDP-Glo UDP release assay (GALNT2) | UDP-Glo UDP release assay (ncOGT (OGT))
1 | CC(=O)N[C@H]1[C@@H](OP(=O)(O)OP(=O)(O)OC[C@H]2O[C@@H](n3ccc(=O)[nH]c3=O)[C@H](O)[C@@H]2O)O[C@H](CO)[C@H](O)[C@@H]1O [UDP-GalNAc] | despite clear turnover of the native UDP-GalNAc substrate | despite clear turnover of the native UDP-GalNAc substrate | –
2 | CC(=O)N[C@H]1[C@@H](OP(=O)(O)OP(=O)(O)OC[C@H]2O[C@@H](n3ccc(=O)[nH]c3=O)[C@H](O)[C@@H]2O)O[C@H](CO)[C@@H](O)[C@@H]1O [UDP-GlcNAc] | – | – | OGT accepted UDP-GalNAc but less efficiently than UDP-GlcNAc
